In patent US20170100489A1, “POLYETHYLENE GLYCOL-MODIFIED INTEGRIN BLOCKER HM-3 AND USE THEREOF” (HANMEI XU, priority 2012, published 2017):
Read-outs that look alike come from different tables or passages of the source. Marks after values point to notes of the source that are not given here. Where no end group is shown, it is not given here. mPEG‑SC20k = methoxy polyethylene glycol-succinimidyl-carbonate, 20000 Da

Key:
[1] = test system: human esophageal cancer Ec109 xenograft tumors; format: in vivo, nude mice; settings: for Rate of inhibiting tumors / Tumor weight: Once 3 days
Method: Tumor diameter was measured with a vernier caliper. […] Tumor volume formula: […]
a, b respectively represent the length and width. […] The formula is as follows: […]
TRTV: Treatment Group RTV; CRTV: Negative Control Group RTV

integrin ανβ3 = target: T1, integrin ανβ3 (Homo sapiens, UniProt P05106+P06756); experiment: Combination with targets through flow cytometry (FITC labeled polypeptide, function-blocking antibody); format: binding; settings: Bel-7402 and MCF-7 cells, 2 mg/ml, FIG. 1
T1 construct: Bel-7402 tumor cells and MCF-7 fusion cultured to 80%; endogenous in cells; host or cells: Bel-7402 and MCF-7 tumor cells
T1 sequence (P06756 31-889 limits assumed): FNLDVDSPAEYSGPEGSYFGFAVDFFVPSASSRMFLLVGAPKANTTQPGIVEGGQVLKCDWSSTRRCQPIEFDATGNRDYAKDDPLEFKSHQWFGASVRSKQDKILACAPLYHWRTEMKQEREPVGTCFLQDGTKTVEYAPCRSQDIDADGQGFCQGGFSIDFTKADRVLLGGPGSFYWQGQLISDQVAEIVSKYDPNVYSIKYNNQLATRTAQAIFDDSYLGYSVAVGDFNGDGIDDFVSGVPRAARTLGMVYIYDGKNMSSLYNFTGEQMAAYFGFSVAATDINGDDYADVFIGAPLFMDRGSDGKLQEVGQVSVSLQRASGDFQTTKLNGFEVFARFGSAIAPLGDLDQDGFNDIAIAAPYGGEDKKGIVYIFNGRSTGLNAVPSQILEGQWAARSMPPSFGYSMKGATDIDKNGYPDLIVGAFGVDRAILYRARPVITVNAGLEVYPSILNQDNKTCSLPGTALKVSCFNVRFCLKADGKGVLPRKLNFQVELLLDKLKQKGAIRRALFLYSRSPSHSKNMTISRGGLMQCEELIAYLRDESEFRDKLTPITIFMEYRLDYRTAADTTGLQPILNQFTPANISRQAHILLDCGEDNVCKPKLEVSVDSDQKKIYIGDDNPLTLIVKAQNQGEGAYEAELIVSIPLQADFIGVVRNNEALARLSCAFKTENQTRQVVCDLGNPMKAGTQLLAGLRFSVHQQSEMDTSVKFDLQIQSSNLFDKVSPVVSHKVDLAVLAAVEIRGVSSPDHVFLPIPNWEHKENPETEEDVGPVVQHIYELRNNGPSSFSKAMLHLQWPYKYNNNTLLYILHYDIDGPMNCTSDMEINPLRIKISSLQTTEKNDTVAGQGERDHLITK
T1 sequence (P06756 891-1048 partner limits assumed): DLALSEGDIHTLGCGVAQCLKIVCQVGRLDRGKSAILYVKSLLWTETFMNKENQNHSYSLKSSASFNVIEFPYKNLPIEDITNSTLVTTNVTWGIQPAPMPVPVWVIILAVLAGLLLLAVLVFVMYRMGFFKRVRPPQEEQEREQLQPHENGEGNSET
T1 sequence (P05106 27-788): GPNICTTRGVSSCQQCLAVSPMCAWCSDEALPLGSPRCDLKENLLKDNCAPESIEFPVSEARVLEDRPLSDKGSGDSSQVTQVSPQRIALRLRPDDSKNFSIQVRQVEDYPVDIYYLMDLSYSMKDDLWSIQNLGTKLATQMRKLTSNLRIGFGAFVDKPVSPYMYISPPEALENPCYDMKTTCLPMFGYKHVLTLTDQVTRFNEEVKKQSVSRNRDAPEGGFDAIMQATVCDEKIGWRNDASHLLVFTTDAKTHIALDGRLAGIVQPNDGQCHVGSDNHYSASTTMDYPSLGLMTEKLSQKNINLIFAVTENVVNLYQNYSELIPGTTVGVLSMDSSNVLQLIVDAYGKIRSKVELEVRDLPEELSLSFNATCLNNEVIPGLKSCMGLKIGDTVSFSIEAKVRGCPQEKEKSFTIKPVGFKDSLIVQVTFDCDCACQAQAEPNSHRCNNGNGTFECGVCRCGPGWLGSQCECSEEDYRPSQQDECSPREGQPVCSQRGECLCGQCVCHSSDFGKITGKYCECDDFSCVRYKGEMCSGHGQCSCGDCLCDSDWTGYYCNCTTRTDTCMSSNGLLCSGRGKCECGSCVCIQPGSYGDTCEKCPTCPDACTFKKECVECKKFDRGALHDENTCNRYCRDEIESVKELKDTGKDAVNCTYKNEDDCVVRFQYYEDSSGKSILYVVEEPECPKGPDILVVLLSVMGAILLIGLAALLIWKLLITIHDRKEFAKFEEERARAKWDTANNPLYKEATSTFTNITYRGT
Method: (§1) • (1) Bel-7402 tumor cells and MCF-7 fusion cultured to 80% after the 24-well plate, trypsinized collected, washed with ice-cold PBS twice, the cells were labeled prior containing 1% BSA resuspended in PBS 30 min. • (2) 2 μl mouse anti-human ανβ3 function-blocking monoclonal antibody (1.0 μg/μl, 1:200), mouse anti-human 2 μl α5β1 function-blocking monoclonal antibody (1.0 μg/μl, 1:200) and the cell suspension were incubated at 4° C. 1.5 h. • (3) collected the labeled cells and washed with ice-cold PBS twice, followed by 100 μl FITC labeled polypeptide modified mPEG-SC20k-HM-3 (2 mg/ml) and the cell suspension were incubated at 4° C. incubate 1.5 h • (4) After labeled, the cells were collected and washed with ice-cold PBS 2 times, followed by resuspension with 400 μl PBS and analyzed by flow cytometry, and detected intensity of the FITC fluorescence through channel FL1.

integrin α5β1 = target: T2, integrin α5β1 (Homo sapiens, UniProt P05556+P08648); experiment: as above; format: binding; settings: Bel-7402 and MCF-7 cells, 2 mg/ml, FIG. 1
T2 construct: Bel-7402 tumor cells and MCF-7 fusion cultured to 80%; endogenous in cells; host or cells: Bel-7402 and MCF-7 tumor cells
T2 sequence (P08648 42-894 limits assumed): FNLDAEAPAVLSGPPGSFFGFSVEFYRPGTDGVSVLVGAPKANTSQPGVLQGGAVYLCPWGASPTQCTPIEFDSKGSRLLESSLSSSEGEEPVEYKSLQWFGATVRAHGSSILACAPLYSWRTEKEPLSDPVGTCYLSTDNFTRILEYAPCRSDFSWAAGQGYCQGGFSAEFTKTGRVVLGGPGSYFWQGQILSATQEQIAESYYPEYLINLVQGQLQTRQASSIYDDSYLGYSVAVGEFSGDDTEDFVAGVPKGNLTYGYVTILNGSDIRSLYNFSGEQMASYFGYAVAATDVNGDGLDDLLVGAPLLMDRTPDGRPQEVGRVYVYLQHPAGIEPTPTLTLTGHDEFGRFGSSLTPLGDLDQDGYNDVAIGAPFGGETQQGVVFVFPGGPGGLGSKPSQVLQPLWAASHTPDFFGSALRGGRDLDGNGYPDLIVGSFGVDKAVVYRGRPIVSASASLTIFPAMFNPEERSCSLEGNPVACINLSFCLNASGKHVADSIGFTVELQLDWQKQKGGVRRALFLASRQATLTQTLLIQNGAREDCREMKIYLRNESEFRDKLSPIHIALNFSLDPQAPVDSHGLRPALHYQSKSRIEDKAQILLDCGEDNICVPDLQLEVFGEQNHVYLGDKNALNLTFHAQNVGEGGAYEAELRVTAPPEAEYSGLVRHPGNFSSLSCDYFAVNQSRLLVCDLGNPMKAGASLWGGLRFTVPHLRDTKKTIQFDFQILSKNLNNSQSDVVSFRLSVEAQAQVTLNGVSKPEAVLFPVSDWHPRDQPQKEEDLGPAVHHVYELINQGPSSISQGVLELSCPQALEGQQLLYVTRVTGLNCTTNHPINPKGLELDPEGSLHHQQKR
T2 sequence (P08648 895-1049 partner limits assumed): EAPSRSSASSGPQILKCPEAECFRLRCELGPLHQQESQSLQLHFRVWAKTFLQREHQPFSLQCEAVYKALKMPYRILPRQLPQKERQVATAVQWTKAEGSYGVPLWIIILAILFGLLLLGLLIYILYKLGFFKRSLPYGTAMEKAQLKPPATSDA
T2 sequence (P05556 21-798): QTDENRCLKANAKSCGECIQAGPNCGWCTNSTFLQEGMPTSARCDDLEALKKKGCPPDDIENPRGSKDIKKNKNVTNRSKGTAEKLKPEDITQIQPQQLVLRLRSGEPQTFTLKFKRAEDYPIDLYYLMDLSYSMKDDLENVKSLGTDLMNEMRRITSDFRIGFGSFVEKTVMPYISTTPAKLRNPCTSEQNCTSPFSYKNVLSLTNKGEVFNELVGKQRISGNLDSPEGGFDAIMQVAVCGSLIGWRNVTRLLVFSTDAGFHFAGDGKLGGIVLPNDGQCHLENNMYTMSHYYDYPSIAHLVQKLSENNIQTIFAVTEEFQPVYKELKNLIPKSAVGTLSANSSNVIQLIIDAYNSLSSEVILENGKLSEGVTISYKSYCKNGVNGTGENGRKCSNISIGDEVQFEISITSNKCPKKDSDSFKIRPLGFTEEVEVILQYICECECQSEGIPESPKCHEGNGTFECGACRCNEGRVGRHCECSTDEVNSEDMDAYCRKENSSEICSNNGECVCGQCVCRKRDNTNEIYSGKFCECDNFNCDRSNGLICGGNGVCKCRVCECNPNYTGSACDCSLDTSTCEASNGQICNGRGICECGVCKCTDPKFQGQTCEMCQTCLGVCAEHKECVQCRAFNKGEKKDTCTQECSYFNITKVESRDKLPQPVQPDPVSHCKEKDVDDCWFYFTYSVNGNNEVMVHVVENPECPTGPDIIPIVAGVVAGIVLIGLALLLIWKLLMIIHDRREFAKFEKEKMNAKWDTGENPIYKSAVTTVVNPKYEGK
Method: as §1

[2] = test system: human prostate cancer DU-145 xenograft tumors; experiment: Tumor growth inhibition, DU-145 xenograft; settings: for Rate of inhibiting tumors / Tumor weight: Once 3 days
Method: Human prostate cancer DU-145 cell lines in logarithmic growth phase were picked, and made into 5×10^7/ml cell suspension of under sterile conditions, and then 0.1 ml suspension was inoculated subcutaneously at the right armpit of nude mice. Tumor diameter was measured with a vernier caliper. The animals which had tumors with a size of 100-200 mm^3 were randomly divided into groups. The effect of polypeptide on anti-tumor was dynamically observed through the method of measuring tumor diameter. The times of measuring tumor diameter were once 2 days, and meantime, weighed mice. The mice in experimental group were infused polypeptide through tail vein. The mice in the placebo group were injected saline with the same volume, once 1 day; Cisplatin group: 10 mg/kg, once 1 week; Endostar group: 2.5 mg/kg, once 1 day; The groups of high, intermediate and low polypeptide: 6, 3, 1.5 mg/kg, respectively, once 1 day. After administration, all mice were sacrificed. Stripped the tumors and weighed.

[3] = Pharmacokinetics of mPEG-SC20k-HM-3 and HM-3 in rats (plasma concentration by ELISA); settings: SD rats, intravenous
Method: (§2) SD rats were randomly divided into six groups with the same number for male and female. Take three groups were administered intravenously integrin antagonist polypeptide with a high dose of 52 mg/kg (equivalent to HM-3 4.2 mg/kg), an intermediate dose of 26 mg/kg (equivalent to HM-3 2.1 mg/kg), a low-dose of 13 mg/kg (equivalent to HM-3 1.05 mg/kg). The other 3 groups were injected HM-3 with a high dose of 4.2 mg/kg, an intermediate dose of 2.1 mg/kg, a low doses of 1.05 mg/kg. Collected whole blood 0.5 ml once from the orbital venous plexus after 0.5 h, 1 h, 2 h, 3 h, 6 h, 12 h, 24 h, 48 h, 72 h, 96 h, 108 h, 132 h of drug administration, and applied heparin to get the effect of anti-coagulation. 12000 rpm/2 min centrifuged plasma. Draw supernatant 200 μl and 80° C. preheated PBS (0.05 M pH7.4) buffer 600 μl and mixed. Bath in the 80° C. water for 30 min. Centrifuged 2 min at 12000 rpm, and collected the supernatant, and stored in the condition of −20° C. Dissolved at room temperature, measured integrin antagonist peptide plasma concentration by ELISA.

[4] = test system: human thyroid cancer SW-579 xenograft tumors; experiment: Tumor growth inhibition, SW-579 xenograft; settings: for Rate of inhibiting tumors / Tumor weight: Once 3 day
Method: (§3) Picked the tumor tissue of vigorous growth and was cut into pieces of about 1.5 mm^3. Under sterile conditions, the tumor tissue was inoculated subcutaneously on the right of nude mice. Tumor diameter was measured with a vernier caliper. The animals which had tumors with a size of 100-200 mm^3 were randomly divided into groups. The effect of polypeptide on anti-tumor was dynamically observed through the method of measuring tumor diameter. The times of measuring tumor diameter were once 2 days, and meantime, weighed mice. The mice in experimental group were infused polypeptide through tail vein, once 3 days. The mice in the placebo group were injected saline with the same volume. Tumor volume formula:
(§4) a, b respectively represent the length and width. According to the result of measurement, calculate the relative tumor volume. Evaluation of antitumor activity is relative tumor proliferation rate T/C(%). The formula is as follows: T/C(%)^=TRTV/CRTV×100%

[5] = test system: human breast cancer MDA-MB-231 xenograft tumors; experiment: Tumor growth inhibition, MDA-MB-231 xenograft; settings: for Rate of inhibiting tumors / Tumor weight: Once 3 days
Method: Picked the tumor tissue of vigorous growth and was cut into pieces of about 1.5 mm^3. Under sterile conditions, the tumor tissue was inoculated subcutaneously on the right of nude mice. Tumor diameter was measured with a vernier caliper. The animals which had tumors with a size of 100-200 mm^3 were randomly divided into groups. The effect of polypeptide on anti-tumor was dynamically observed through the method of measuring tumor diameter. The times of measuring tumor diameter were once 2 days, and meantime, weighed mice. The mice in experimental group were infused polypeptide through tail vein, once 3 days. The mice in the placebo group were injected saline with the same volume. Tumor volume formula: TV=0.52×a×b^2
as §4
(§5) TRTV: Treatment group RTV; CRTV: negative control group RTV

[6] = test system: human colon cancer HT-29 xenograft tumors; experiment: Tumor growth inhibition, HT-29 xenograft; settings: for Rate of inhibiting tumors / Tumor weight: Once 3 days
Method: Human colon cancer HT-29 cell lines in logarithmic growth phase were picked, and made into 5×10^7/ml cell suspension of under sterile conditions, and then 0.1 ml suspension was inoculated subcutaneously at the right armpit of nude mice. Tumor diameter was measured with a vernier caliper. The animals which had tumors with a size of 100-200 mm^3 were randomly divided into groups. The effect of polypeptide on anti-tumor was dynamically observed through the method of measuring tumor diameter. The times of measuring tumor diameter were once 2 days, and meantime, weighed mice. The mice in experimental group were infused polypeptide through tail vein. The mice in the placebo group were injected saline with the same volume, once 1 day; Taxol group: 10 mg/kg, once 1 week; Endostar group: 2.5 mg/kg, once 1 day; The groups of high, intermediate and low polypeptide: 6, 3, 1.5 mg/kg, respectively, once 1 day. After administration, all mice were sacrificed. Stripped the tumors and weighed.

[7] = test system: human lung cancer H460 xenograft tumors; experiment: Tumor growth inhibition, H460 xenograft; settings: for Rate of inhibiting tumors / Tumor weight: Once 3 days
Method: as §3, §4, §5

[8] = test system: human endometrial cancer HHUA xenograft tumors; experiment: Tumor growth inhibition, HHUA xenograft; settings: for Rate of inhibiting tumors / Tumor weight: Once 3 days
Method: Human endometrial cancer HHUA cell lines in logarithmic growth phase were picked, and made into 5×10^7/ml cell suspension of under sterile conditions, and then 0.1 ml suspension was inoculated subcutaneously at the right armpit of nude mice. Tumor diameter was measured with a vernier caliper. The animals which had tumors with a size of 100-200 mm^3 were randomly divided into groups. The effect of polypeptide on anti-tumor was dynamically observed through the method of measuring tumor diameter. The times of measuring tumor diameter were once 2 days, and meantime, weighed mice. The mice in experimental group were infused polypeptide through tail vein. The mice in the placebo group were injected saline with the same volume, once 1 day; Taxol group: 10 mg/kg, once 1 week; Endostar group: 2.5 mg/kg, once 1 day; The groups of high, intermediate and low polypeptide: 6, 3, 1.5 mg/kg, respectively, once 1 day. After administration, all mice were sacrificed. Stripped the tumors and weighed.

[9] = test system: human bladder cancer HT1376 xenograft tumors; experiment: Tumor growth inhibition, HT1376 xenograft; settings: for Rate of inhibiting tumors / Tumor weight: Once 3 days
Method: Human bladder cancer HT1376 cell lines in logarithmic growth phase were picked, and made into 5×10^7/ml cell suspension of under sterile conditions, and then 0.1 ml suspension was inoculated subcutaneously at the right armpit of nude mice. Tumor diameter was measured with a vernier caliper. The animals which had tumors with a size of 100-200 mm^3 were randomly divided into groups. The effect of polypeptide on anti-tumor was dynamically observed through the method of measuring tumor diameter. The times of measuring tumor diameter were once 2 days, and meantime, weighed mice. The mice in experimental group were infused polypeptide through tail vein. The mice in the placebo group were injected saline with the same volume, once 1 day; Taxol group: 10 mg/kg, once 1 week; Endostar group: 2.5 mg/kg, once 1 day; The groups of high, intermediate and low polypeptide: 6, 3, 1.5 mg/kg, respectively, once 1 day. After administration, all mice were sacrificed. Stripped the tumors and weighed.

[10] = rat, in vivo, iv
Method: as §2

[11] = test system: human gastric cancer MGC803 xenograft tumors; experiment: Tumor growth inhibition, MGC803 xenograft; settings: for Rate of inhibiting tumors / Tumor weight: Once 3 days
Method: as §3, §4, §5

[12] = high, 36.7 mg/kg, listed as polypeptide
[13] = intermediate, 18.75 mg/kg, listed as polypeptide
[14] = low, 9.38 mg/kg, listed as polypeptide

Substance: mPEG-SC20k-Ile-Val-Arg-Arg-Ala-Asp-Arg-Ala-Ala-Val-Pro-Gly-Gly-Gly-Gly-Arg-Gly-Asp ({mPEG‑SC20k}-IVRRADRAAVPGGGGRGD) [mPEG-SC20k-HM-3]
- inhibition of tumor growth compared with negative control ([1]; 36.7 mg/kg, P<0.05): significant inhibition role
- Rate of inhibiting tumors ([1]; high, 36.7 mg/kg): 62.24%*
- Tumor weight ([1]; high, 36.7 mg/kg): 0.183 g
- Rate of inhibiting tumors [1, 12]: 62.24%
- Rate of inhibiting tumors ([1]; intermediate, 18.75 mg/kg): 55.66%
- Tumor weight ([1]; intermediate, 18.75 mg/kg): 0.318 g
- Rate of inhibiting tumors [1, 13]: 55.66%
- Rate of inhibiting tumors ([1]; low, 9.38 mg/kg): 50.16%
- Tumor weight ([1]; low, 9.38 mg/kg): 0.406 g
- Rate of inhibiting tumors [1, 14]: 50.16%
- binding to integrin ανβ3 (integrin ανβ3): able to bind
- binding to integrin α5β1 (integrin α5β1): able to bind
- inhibition of tumor growth compared with negative control ([2]; 36.7 mg/kg, P<0.05): significant inhibition role
- Rate of inhibiting tumors ([2]; high, 36.7 mg/kg): 77.46%*
- Tumor weight ([2]; high, 36.7 mg/kg): 0.417 g
- Rate of inhibiting tumors [2, 12]: 77.46%
- Rate of inhibiting tumors ([2]; intermediate, 18.75 mg/kg): 67.48%
- Tumor weight ([2]; intermediate, 18.75 mg/kg): 0.603 g
- Rate of inhibiting tumors [2, 13]: 67.48%
- Rate of inhibiting tumors ([2]; low, 9.38 mg/kg): 57.87%
- Tumor weight ([2]; low, 9.38 mg/kg): 0.781 g
- Rate of inhibiting tumors [2, 14]: 57.87%
- CL [3]: 0.118 mL/min/kg
- inhibition of tumor growth compared with negative control ([4]; 36.7 mg/kg, P<0.05): significant inhibition role
- toxic and side effects ([4]; 36.7 mg/kg, compared with positive 5-Fu group): no obvious toxic and side effects
- Rate of inhibiting tumors ([4]; high, 36.7 mg/kg): 67.63%*
- Tumor weight ([4]; high, 36.7 mg/kg): 0.406 g
- Rate of inhibiting tumors [4, 12]: 67.63%
- Rate of inhibiting tumors ([4]; intermediate, 18.75 mg/kg): 60.56%
- Tumor weight ([4]; intermediate, 18.75 mg/kg): 0.494 g
- Rate of inhibiting tumors [4, 13]: 60.56%
- Rate of inhibiting tumors ([4]; low, 9.38 mg/kg): 58.42%
- Tumor weight ([4]; low, 9.38 mg/kg): 0.521 g
- Rate of inhibiting tumors [4, 14]: 58.42%
- inhibition of tumor growth compared with negative control ([5]; 36.7 mg/kg, P<0.05): significant inhibition role
- Rate of inhibiting tumors ([5]; high, 36.7 mg/kg): 63.05%*
- Tumor weight ([5]; high, 36.7 mg/kg): 0.459 g
- Rate of inhibiting tumors [5, 12]: 63.05%
- Rate of inhibiting tumors ([5]; intermediate, 18.75 mg/kg): 59.11%
- Tumor weight ([5]; intermediate, 18.75 mg/kg): 0.508 g
- Rate of inhibiting tumors [5, 13]: 59.11%
- Rate of inhibiting tumors ([5]; low, 9.38 mg/kg): 51.01%
- Tumor weight ([5]; low, 9.38 mg/kg): 0.609 g
- Rate of inhibiting tumors [5, 14]: 51.01%
- inhibition of tumor growth compared with negative control ([6]; 36.7 mg/kg, P<0.05): significant inhibition role
- Rate of inhibiting tumors ([6]; high, 36.7 mg/kg): 55.98%*
- Tumor weight ([6]; high, 36.7 mg/kg): 0.493 g
- Rate of inhibiting tumors [6, 12]: 55.98%
- Rate of inhibiting tumors ([6]; intermediate, 18.75 mg/kg): 45.45%
- Tumor weight ([6]; intermediate, 18.75 mg/kg): 0.611 g
- Rate of inhibiting tumors [6, 13]: 45.45%
- Rate of inhibiting tumors ([6]; low, 9.38 mg/kg): 37.05%
- Tumor weight ([6]; low, 9.38 mg/kg): 0.705 g
- Rate of inhibiting tumors [6, 14]: 37.05%
- inhibition of tumor growth compared with negative control ([7]; 36.7 mg/kg, P<0.05): significant inhibition role
- Rate of inhibiting tumors ([7]; high, 36.7 mg/kg): 66.45%*
- Tumor weight ([7]; high, 36.7 mg/kg): 0.266 g
- Rate of inhibiting tumors [7, 12]: 66.45%
- Rate of inhibiting tumors ([7]; intermediate, 18.75 mg/kg): 55.37%
- Tumor weight ([7]; intermediate, 18.75 mg/kg): 0.354 g
- Rate of inhibiting tumors [7, 13]: 55.37%
- Rate of inhibiting tumors ([7]; low, 9.38 mg/kg): 54.28%
- Tumor weight ([7]; low, 9.38 mg/kg): 0.363 g
- Rate of inhibiting tumors [7, 14]: 54.28%
- inhibition of tumor growth compared with negative control ([8]; 36.7 mg/kg, P<0.05): significant inhibition role
- Rate of inhibiting tumors ([8]; high, 36.7 mg/kg): 62.47%*
- Tumor weight ([8]; high, 36.7 mg/kg): 0.453 g
- Rate of inhibiting tumors [8, 12]: 62.47%
- Rate of inhibiting tumors ([8]; intermediate, 18.75 mg/kg): 53.65%
- Tumor weight ([8]; intermediate, 18.75 mg/kg): 0.560 g
- Rate of inhibiting tumors [8, 13]: 53.65%
- Rate of inhibiting tumors ([8]; low, 9.38 mg/kg): 51.38%
- Tumor weight ([8]; low, 9.38 mg/kg): 0.587 g
- Rate of inhibiting tumors [8, 14]: 51.38%
- inhibition of tumor growth compared with negative control ([9]; 36.7 mg/kg, P<0.05): significant inhibition role
- Rate of inhibiting tumors ([9]; high, 36.7 mg/kg): 63.42%*
- Tumor weight ([9]; high, 36.7 mg/kg): 0.372 g
- Rate of inhibiting tumors [9, 12]: 63.42%
- Rate of inhibiting tumors ([9]; intermediate, 18.75 mg/kg): 54.24%
- Tumor weight ([9]; intermediate, 18.75 mg/kg): 0.466 g
- Rate of inhibiting tumors [9, 13]: 54.24%
- Rate of inhibiting tumors ([9]; low, 9.38 mg/kg): 46.39%
- Tumor weight ([9]; low, 9.38 mg/kg): 0.546 g
- Rate of inhibiting tumors [9, 14]: 46.39%
- t1/2β ([10]; both, SD): 20.13 h
- t1/2p [10]: 20.13 h
- t1/2β [10]: 20.13 h
- inhibition of tumor growth compared with negative control ([11]; 36.7 mg/kg, P<0.05): significant inhibition role
- Rate of inhibiting tumors ([11]; high, 36.7 mg/kg): 73.42%*
- Tumor weight ([11]; high, 36.7 mg/kg): 0.192 g
- Rate of inhibiting tumors [11, 12]: 73.42%
- Rate of inhibiting tumors ([11]; intermediate, 18.75 mg/kg): 69.86%
- Tumor weight ([11]; intermediate, 18.75 mg/kg): 0.218 g
- Rate of inhibiting tumors [11, 13]: 69.86%
- Rate of inhibiting tumors ([11]; low, 9.38 mg/kg): 59.57%
- Tumor weight ([11]; low, 9.38 mg/kg): 0.292 g
- Rate of inhibiting tumors [11, 14]: 59.57%
